# In PMC9598926, “Design and Synthesis of (Z)-5-(Substituted benzylidene)-3-cyclohexyl-2-thioxothiazolidin-4-one Analogues as Anti-Tyrosinase and Antioxidant Compounds: In Vitro and In Silico Insights” (Antioxidants, 2022):
# Tests used:
# [1] = target: T1, B16F10 cellular tyrosinase (Mus musculus, UniProt P11344); experiment: Cellular tyrosinase activity assay in α–MSH plus IBMX stimulated B16F10 cells; assay type: cell-based, murine; settings: 5, 10, 20 µM, 72 h
# T1 construct: B16F10 murine melanoma cells were used as a cellular tyrosinase source; endogenous in cells; host or cells: B16F10 murine melanoma cells (ATCC)
# T1 sequence (P11344 19-533): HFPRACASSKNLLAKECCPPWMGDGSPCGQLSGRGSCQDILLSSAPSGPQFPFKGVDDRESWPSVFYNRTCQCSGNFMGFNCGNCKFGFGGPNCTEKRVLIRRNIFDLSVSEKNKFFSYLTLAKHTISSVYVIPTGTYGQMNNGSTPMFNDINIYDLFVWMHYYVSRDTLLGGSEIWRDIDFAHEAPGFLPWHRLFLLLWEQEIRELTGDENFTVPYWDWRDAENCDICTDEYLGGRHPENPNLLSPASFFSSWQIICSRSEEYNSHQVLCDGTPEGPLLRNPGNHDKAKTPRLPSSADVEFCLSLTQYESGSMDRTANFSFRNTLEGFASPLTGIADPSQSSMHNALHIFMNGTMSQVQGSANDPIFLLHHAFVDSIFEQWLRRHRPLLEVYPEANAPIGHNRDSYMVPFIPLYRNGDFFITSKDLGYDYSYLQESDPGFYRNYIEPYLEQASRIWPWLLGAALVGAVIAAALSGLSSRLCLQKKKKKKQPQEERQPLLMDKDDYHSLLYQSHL
# Procedure: Cellular Tyrosinase Activity Assay
# Briefly, cultured B16F10 cells were seeded in 6-well culture plate at 1 × 10^4 cells/well and incubated for 12 h under cell culture conditions to allow them to adhere to well bottoms. […] Cells were then washed with PBS twice and exposed to a lysis buffer solution (100 µL) comprised of 5 µL of 20% Triton X-100, 5 µL of 2 mM PMSF, and 90 µL of 50 mM phosphate buffer in pH 6.5. Lysates were kept at −80 °C for 30 min, defrosted, and centrifuged at 12,000 rpm for 30 min at 4 °C. Supernatants (80 µL) were mixed with 20 µL of 2 mg/mL of L-dopa in a 96-well plate, and absorbance of each well was measured at 475 nm every 10 min for 1 h at 37 °C using a microplate reader (VersaMax®, Molecular Devices, Sunnyvale, CA, USA). Experiments were performed independently 3 times.
# Cellular tyrosinase activities were determined by measuring optical densities at 475 nm.
# [2] = system: B16F10 cells; experiment: Melanin content analysis in α–MSH plus IBMX stimulated B16F10 cells; assay type: cell-based, murine
# Procedure: 2.10. Melanin Content Analysis Melanin content assays were performed to determine the effects of analog 3 on cellular melanin formation, as previously described with minor modification. […] Briefly, cultured B16F10 cells were seeded in 6-well culture plates at 1 × 10^4 cells/well and incubated for 12 h under culture conditions to allow them to adhere to well bottoms. […] Cells were then washed twice with PBS and detached from wells by incubation with Trypsin/EDTA. After centrifugation, detached cell pellets were dissolved in 1N–NaOH solution (100 µL), incubated for 1 h at 60 °C, and mixed to solubilize melanin released by cells. The ability of analog 3 to inhibit melanin production was determined by measuring well optical densities (ODs) at 405 nm using a microplate reader (VersaMax®, Molecular Devices, Sunnyvale, CA, USA). Melanin contents were calculated by dividing the ODs of samples by the control OD. Experiments were conducted independently 3 times. […] Thus, B16F10 cells were treated with analog 3 (0, 5, 10, or 20 µM) for 1 h and then stimulated with α–MSH (1 µM) plus IBMX (200 µM) for 72 h. Melanin contents were assessed by measuring optical densities at 405 nm.
smiles,measurement,setting,value
"O=C1/C(=C/c2ccc(O)cc2O)SC(=S)N1C1CCCCC1 [Analog 3, (Z)-3-Cyclohexyl-5-(2,4-dihydroxybenzylidene)-2-thioxothiazolidin-4-one]",effect on α–MSH plus IBMX induced increase in cellular tyrosinase activity,[1],significantly and dose-dependently reduced
same,effect on α–MSH/IBMX-induced melanin contents at 5 µM,"[2]; 5 µM, compared with kojic acid 20 µM",greater effect than kojic acid at 20 µM
same,effect on α–MSH/IBMX-induced melanin contents at 20 µM,"[2]; 20 µM, 72 h",to the non-treated control level
same,effect on α–MSH/IBMX-induced melanin content increases,"[2]; 5, 10, 20 µM, 72 h",significantly and dose-dependently reduced
